Key:
NKG2D-Fc [1] = target: T1, NKG2D-Fc (Homo sapiens, UniProt P26718); assay: ELISA affinity against NKG2D-Fc; type: binding; conditions: FITC derivatives; read-out: dissociation constant (KD) against NKG2D-Fc by ELISA
T1 construct: the extracellular domain of NKG2D was fused with an IgG Fc fragment; made in house; host or cells: CHO cells
T1 sequence (P26718 73-216 limits assumed): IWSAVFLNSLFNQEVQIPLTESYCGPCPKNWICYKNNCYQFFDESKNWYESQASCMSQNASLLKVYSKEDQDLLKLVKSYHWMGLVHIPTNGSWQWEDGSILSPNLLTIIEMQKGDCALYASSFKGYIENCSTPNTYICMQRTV
Protocol: Selection results were decoded with C++^[ [61] ^] and visualized using MATLAB R2019b (MathWorks). EFs were calculated by dividing the DNA sequence counts for each hit compound by the average DNA sequence count from the corresponding DEL screening. Additionally, Z‐score values were calculated following methods previously published,^[ [60] ^] as present in Supporting Information. Hit compounds with high EFs in the target protein selections and low EFs in the negative controls (anti‐target and streptavidin selections) were selected for hit validation activities. All compounds were synthesized using either solid‐phase peptide synthesis or solution‐phase methodologies. Affinities of fluorescein‐bearing hits were determined by FP or ELISA measurements. […] ACP3 colorimetric inhibition assay was performed with serially diluted compounds at a fixed concentration (5 mM in PBS) of para‐nitrophenyl phosphate as substrate. Binding kinetics were assessed on a Biacore X100 instrument with the target protein immobilized on a CM5 chip at 4′000 RUs. Cell binding of fluorescent ligands was evaluated using flow cytometry against antigen‐positive and antigen‐negative (wild‐type) cancer cells. in vitro tissue uptake of ^177Lu‐labelled DOTAGA PSMA‐radioligands was measured via autoradiography. […]
Grenier 384 transparent, flat-bottom well plates were used. Each test compound was measured in triplicate. […]

NKG2D-Fc [2] = target: T1, NKG2D-Fc; assay: Size-exclusion chromatography co-elution with NKG2D-Fc; type: binding

Kd (NKG2D-Fc [1]): 133 nM | co-elution with NKG2D-Fc in size-exclusion chromatography (NKG2D-Fc [2]): kinetically stable complex
Compound: CC(C)Oc1ccc(-c2cccc(C[C@H](NC(=O)c3ccccc3-c3ccc(C(F)(F)F)cc3)C(=O)N[C@@H](CCCCNC(=S)Nc3ccc4c(c3)C(=O)OC43c4ccc(O)cc4Oc4cc(O)ccc43)C(=O)O)c2)c(F)c1 [compound 30]
